Values joined by “and” are separate entries in the source; they are usually repeats but may differ in a detail not shown here. Equal entries are not always repeated.
How the values were obtained:
MWCL-1 cells = test: Cell proliferation analysis for WM and lymphoma cell lines (CellTiter-Glo); assay type: cell-based; conditions: 72 hours
BMX [1] = target: T1, BMX (Homo sapiens (Human), UniProt P51813); test: Invitrogen Select Screening in vitro kinase assay; assay type: biochemical
BTK = BTK (Homo sapiens (Human), UniProt Q06187); test: Invitrogen Select Screening in vitro kinase assay; assay type: biochemical
BCWM.1 cells = test: Cell proliferation analysis for WM and lymphoma cell lines (CellTiter-Glo); assay type: cell-based; conditions: BCWM1; 72 hours
Ramos cells = test: as above; assay type: cell-based; conditions: Homo sapiens, 72 hours
BLK = BLK (Homo sapiens (Human), UniProt P51451); test: Invitrogen Select Screening in vitro kinase assay; assay type: biochemical
From the text: (§1) The in vitro activity of compounds of Formula (I) and (II) in inhibiting BMX and other kinases were obtained using an Invitrogen Select Screening assay as known in the art. The IC50 values determined from this assay are shown below.

mTOR = mTOR (Homo sapiens (Human), UniProt P42345); test: Invitrogen Select Screening in vitro kinase assay; assay type: biochemical
From the text: as §1

OCI-Ly19 cells = test: Cell proliferation analysis for WM and lymphoma cell lines (CellTiter-Glo); assay type: cell-based; conditions: Homo sapiens, 72 hours
OCI-Ly3 cells = test: as above; assay type: cell-based; conditions: Homo sapiens, 72 hours
JAK3 = JAK3 (Homo sapiens (Human), UniProt P52333); test: Invitrogen Select Screening in vitro kinase assay; assay type: biochemical
RV-1 cells = test: Anti-proliferation assay for prostate cancer cells (CellTiter-Glo); assay type: cell-based
Experimental: Data were normalized to control group (DMSO) and represented by the mean of at least two independent measurement with standard error <20%. GI50 were calculated using Prism 5.0 (GraphPad Software, San Diego, Calif.).

wild-type (WT) BMX = wild-type (WT) BMX (Homo sapiens (Human), UniProt P51813); test: IP kinase assay, BMX autophosphorylation; assay type: biochemical; conditions: FIG. 15
From the text: FIG. 15 confirms that the potency of the BMX inhibitors is due to covalent binding to cysteine 496.

BMX [2] = target: T1, BMX; test: BMX protein levels in RV-1 cells; assay type: cell-based; conditions: 72 h treatment, 5 μM
From the text: Moreover, the depletion could be rescued upon stable overexpression of the C496S mutant BMX.

PRCIWM-1 cells = test: Cell proliferation analysis for WM and lymphoma cell lines (CellTiter-Glo); assay type: cell-based; conditions: 72 hours
Experimental: CellTiter-Glo® Luminescent cell viability assay (Promega) was used to assess cell survival following treatment with an inhibitor compound of Formula (I) or (II) (e.g., 1-14). Various cell lines were used including Waldenström's macroglobulinemia (WM) cell lines (BCWM.1, MWCL-1, RPCI-WM1) and B-cell lymphoma cell lines (OCI-Ly3, Ramos, OCI-Ly19). Cells were seeded into 384 well plates with the EL406 Combination Washer Dispenser (BioTek Instruments, Inc.) and inhibitor compounds were injected into the cells culture media with the JANUS Automated Workstation (PerkinElmer Inc.). Cells were treated with a series diluted inhibitor compounds (20˜0.04 μM) for 72 hours at 37° C. Luminescent measurement is performed using the 2104 Envision® Multilabel Reader (PerkinElmer Inc.).

TEC = TEC (Homo sapiens (Human), UniProt P42680); test: Invitrogen Select Screening in vitro kinase assay; assay type: biochemical
From the text: as §1

Chain of BTK (Q06187 whole entry): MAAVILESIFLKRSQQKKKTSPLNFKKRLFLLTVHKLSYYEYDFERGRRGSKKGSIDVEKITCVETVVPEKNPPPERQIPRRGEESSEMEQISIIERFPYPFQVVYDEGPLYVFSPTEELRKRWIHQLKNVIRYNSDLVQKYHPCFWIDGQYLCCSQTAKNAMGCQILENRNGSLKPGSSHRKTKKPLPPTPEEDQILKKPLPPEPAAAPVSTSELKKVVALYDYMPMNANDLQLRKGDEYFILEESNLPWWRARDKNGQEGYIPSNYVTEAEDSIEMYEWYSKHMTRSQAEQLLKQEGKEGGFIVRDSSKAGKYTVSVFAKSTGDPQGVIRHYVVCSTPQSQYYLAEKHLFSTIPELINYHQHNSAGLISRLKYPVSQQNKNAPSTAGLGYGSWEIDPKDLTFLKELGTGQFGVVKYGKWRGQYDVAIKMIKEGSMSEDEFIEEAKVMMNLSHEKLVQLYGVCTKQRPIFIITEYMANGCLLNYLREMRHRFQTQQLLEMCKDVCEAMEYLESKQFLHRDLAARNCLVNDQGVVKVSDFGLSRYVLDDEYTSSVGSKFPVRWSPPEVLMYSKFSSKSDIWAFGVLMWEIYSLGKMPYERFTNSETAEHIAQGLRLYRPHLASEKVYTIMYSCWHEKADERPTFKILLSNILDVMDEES
Chain of JAK3 (P52333 whole entry): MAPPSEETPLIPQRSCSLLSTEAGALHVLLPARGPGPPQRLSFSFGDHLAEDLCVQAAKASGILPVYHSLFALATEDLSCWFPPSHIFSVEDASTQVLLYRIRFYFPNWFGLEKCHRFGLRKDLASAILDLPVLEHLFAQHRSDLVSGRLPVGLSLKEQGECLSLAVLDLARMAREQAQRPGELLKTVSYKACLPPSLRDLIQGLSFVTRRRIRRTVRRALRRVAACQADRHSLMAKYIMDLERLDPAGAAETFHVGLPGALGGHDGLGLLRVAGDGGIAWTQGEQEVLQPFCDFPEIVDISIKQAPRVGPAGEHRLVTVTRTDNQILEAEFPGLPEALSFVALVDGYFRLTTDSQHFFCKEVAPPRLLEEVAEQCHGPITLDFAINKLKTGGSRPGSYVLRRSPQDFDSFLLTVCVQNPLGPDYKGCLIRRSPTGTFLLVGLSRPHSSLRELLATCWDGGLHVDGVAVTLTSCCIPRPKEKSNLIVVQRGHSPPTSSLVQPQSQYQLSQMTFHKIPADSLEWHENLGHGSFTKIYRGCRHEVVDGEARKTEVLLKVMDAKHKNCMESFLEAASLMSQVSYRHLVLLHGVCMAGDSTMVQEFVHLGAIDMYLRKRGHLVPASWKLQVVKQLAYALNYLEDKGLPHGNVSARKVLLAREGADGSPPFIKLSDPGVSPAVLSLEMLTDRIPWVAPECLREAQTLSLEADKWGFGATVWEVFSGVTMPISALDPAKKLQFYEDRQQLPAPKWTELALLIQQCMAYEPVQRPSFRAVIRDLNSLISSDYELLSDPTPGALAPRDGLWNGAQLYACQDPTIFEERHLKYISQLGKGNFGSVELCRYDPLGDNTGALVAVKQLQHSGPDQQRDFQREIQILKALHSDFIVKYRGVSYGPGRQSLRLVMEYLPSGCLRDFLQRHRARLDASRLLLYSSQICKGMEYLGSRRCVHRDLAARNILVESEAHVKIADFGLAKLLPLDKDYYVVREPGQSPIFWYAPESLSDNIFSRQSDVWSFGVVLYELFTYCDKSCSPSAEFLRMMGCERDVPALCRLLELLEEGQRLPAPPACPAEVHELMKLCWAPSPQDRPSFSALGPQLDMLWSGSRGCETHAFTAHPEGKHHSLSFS
T1 sequence (P51813 whole entry): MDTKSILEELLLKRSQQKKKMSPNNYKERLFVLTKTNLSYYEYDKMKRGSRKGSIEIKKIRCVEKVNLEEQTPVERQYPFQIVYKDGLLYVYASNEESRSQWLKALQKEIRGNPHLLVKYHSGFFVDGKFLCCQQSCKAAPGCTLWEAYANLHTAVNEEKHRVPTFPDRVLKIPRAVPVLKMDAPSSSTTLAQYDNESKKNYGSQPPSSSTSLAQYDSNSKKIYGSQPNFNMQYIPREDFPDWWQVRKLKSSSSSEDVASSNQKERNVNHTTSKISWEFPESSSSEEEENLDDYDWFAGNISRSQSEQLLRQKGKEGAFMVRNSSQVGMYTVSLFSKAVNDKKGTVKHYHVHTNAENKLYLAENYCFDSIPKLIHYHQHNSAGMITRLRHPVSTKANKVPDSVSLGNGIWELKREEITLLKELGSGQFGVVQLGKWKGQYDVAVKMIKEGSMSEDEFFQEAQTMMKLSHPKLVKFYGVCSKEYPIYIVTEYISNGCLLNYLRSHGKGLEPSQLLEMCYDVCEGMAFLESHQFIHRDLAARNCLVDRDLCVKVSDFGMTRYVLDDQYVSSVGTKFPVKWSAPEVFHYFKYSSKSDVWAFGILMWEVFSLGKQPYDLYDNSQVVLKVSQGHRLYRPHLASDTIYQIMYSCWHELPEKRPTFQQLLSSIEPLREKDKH
Chain of BLK (P51451 whole entry): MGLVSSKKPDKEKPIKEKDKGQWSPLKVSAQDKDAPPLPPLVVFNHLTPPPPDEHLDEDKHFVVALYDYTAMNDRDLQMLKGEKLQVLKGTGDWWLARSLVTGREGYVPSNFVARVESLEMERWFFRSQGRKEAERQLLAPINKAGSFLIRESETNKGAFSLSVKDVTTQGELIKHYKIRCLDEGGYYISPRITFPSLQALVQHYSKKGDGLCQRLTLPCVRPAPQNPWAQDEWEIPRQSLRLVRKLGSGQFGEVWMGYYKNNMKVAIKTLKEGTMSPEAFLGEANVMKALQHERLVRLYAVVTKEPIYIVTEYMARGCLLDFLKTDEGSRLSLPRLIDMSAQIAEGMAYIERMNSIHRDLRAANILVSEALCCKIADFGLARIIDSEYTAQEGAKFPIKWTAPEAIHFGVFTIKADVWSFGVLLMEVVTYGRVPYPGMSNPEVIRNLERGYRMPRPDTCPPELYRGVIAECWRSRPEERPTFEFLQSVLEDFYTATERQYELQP
Chain of TEC (P42680 whole entry): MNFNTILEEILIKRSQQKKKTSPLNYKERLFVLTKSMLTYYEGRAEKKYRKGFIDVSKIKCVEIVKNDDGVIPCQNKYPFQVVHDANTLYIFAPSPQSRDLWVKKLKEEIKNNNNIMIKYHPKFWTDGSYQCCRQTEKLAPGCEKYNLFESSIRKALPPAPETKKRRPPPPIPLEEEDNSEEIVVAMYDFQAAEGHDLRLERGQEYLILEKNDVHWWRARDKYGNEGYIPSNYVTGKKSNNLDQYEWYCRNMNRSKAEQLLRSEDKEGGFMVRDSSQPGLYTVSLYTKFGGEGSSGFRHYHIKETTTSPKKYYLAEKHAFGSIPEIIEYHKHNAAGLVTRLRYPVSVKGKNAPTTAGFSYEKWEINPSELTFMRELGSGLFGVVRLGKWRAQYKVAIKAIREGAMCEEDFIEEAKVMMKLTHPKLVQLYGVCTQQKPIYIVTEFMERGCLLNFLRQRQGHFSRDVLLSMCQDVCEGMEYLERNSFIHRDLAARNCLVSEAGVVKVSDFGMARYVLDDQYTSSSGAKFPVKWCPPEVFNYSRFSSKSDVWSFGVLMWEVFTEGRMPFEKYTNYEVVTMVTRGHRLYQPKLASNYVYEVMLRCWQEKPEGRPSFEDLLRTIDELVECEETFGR
Chain of wild-type (WT) BMX (P51813 whole entry): as the sequence (P51813 whole entry) above

SMILES	EC50 (MWCL-1 cells)	IC50 (BMX [1])	IC50 (BTK)	EC50 (BCWM.1 cells)	EC50 (Ramos cells)	IC50 (mTOR)	EC50 (OCI-Ly19 cells)	EC50 (OCI-Ly3 cells)	also measured
C=CC(=O)Nc1cc(-n2c(=O)ccc3cnc4ccc(-c5ccccc5)cc4c32)ccc1C [I-7]	950 nM	15.9 nM and 16 nM	25 nM	180 nM	310 nM	210 nM	10 nM	380 nM	IC50 (BLK): 250 nM
C=CC(=O)Nc1cc(-n2c(=O)ccc3cnc4ccc(-c5ccc(NC(=O)NC)cc5)cc4c32)ccc1C [I-8]	–	40.6 nM	66 nM	–	–	–	–	–	IC50 (JAK3): 4170 nM
C=CC(=O)N1CCc2ccc(-n3c(=O)ccc4cnc5ccc(-c6ccc(C(=O)NC)cc6F)cc5c43)cc21 [I-9]	–	–	54 nM	–	–	–	–	–	–
C=CC(=O)N1CCc2ccc(-n3c(=O)ccc4cnc5ccc(-c6ccc(COc7cccc(C(F)(F)F)c7)cc6)cc5c43)cc21 [I-10]	5750 nM	> 10000 nM	1060 nM	2120 nM	3770 nM	–	290 nM	3660 nM	–
C=CC(=O)N1CCc2ccc(-n3c(=O)ccc4cnc5ccc(-c6ccc(S(=O)(=O)NC(C)(C)C)cc6)cc5c43)cc21 [I-11]	–	18.1 nM and 18 nM	11 nM	–	–	536 nM	–	–	–
C=CC(=O)Nc1cc(-n2c(=O)ccc3cnc4ccc(-c5ccc(COc6cccc(C(F)(F)F)c6)cc5)cc4c32)ccc1C [I-13]	–	18.1 nM and 28 nM	37 nM	–	–	–	–	–	–
CCC(=O)Nc1cc(-n2c(=O)ccc3cnc4ccc(-c5ccc(NS(C)(=O)=O)cc5)cc4c32)ccc1C [I-14R]	–	–	–	–	–	–	–	–	concentration with antiproliferative effects against RV-1 cells (RV-1 cells): ≥ 10 µM; concentration inhibiting autophosphorylation of wild-type BMX (wild-type (WT) BMX): > 10,000 nM; BMX protein levels in RV-1 cells (BMX [2]): not
C=CC(=O)Nc1cc(-n2c(=O)ccc3cnc4ccc(-c5ccc(C(N)=O)cc5)cc4c32)ccc1C [I-15]	–	–	79 nM	–	–	–	–	–	–
C=CC(=O)Nc1cc(-n2c(=O)ccc3cnc4ccc(/C=C/c5ccccc5)cc4c32)ccc1C [I-16]	1780 nM	27.8 nM and 28 nM	105 nM	490 nM	420 nM	–	80 nM	1120 nM	–
C=CC(=O)N1CCc2ccc(-n3c(=O)ccc4cnc5ccc(-c6ccc(N7CCN(C)CC7)cc6)cc5c43)cc21 [I-17]	1780 nM	399 nM	155 nM	490 nM	420 nM	516 nM	80 nM	1120 nM	IC50 (JAK3): 5580 nM
C=CC(=O)Nc1cc(-n2c(=O)ccc3cnc4ccc(-c5ccc6c(c5)OCCO6)cc4c32)ccc1C [I-18]	–	13.3 nM and 13 nM	16 nM	–	–	642 nM	–	–	–
C=CC(=O)Nc1cc(-n2c(=O)ccc3cnc4ccc(-c5ccc6occc6c5)cc4c32)ccc1C [I-20]	798 nM	–	–	1020 nM	602 nM	–	> 20000 nM	1100 nM	–
C=CC(=O)Nc1cc(-n2c(=O)ccc3cnc4ccc(-c5ccc6ccncc6c5)cc4c32)ccc1C [I-21]	56 nM	–	–	93 nM	57 nM	–	90 nM	109 nM	–
C=CC(=O)Nc1cc(-n2c(=O)ccc3cnc4ccc(-c5ccc6[nH]ncc6c5)cc4c32)ccc1C [I-22]	117 nM	–	–	203 nM	91 nM	–	51 nM	180 nM	–
C=CC(=O)Nc1cc(-n2c(=O)ccc3cnc4ccc(-c5ccc6c(c5)OCO6)cc4c32)ccc1C [I-23]	610 nM	–	–	849 nM	653 nM	–	19 nM	1170 nM	–
C=CC(=O)Nc1cc(-n2c(=O)ccc3cnc4ccc(-c5ccc6ocnc6c5)cc4c32)ccc1C [I-24]	284 nM	–	–	345 nM	355 nM	–	24 nM	516 nM	–
C=CC(=O)Nc1cc(-n2c(=O)ccc3cnc4ccc(Nc5ccc6ccncc6c5)cc4c32)ccc1C [I-26]	6820 nM	–	–	3580 nM	3830 nM	–	659 nM	3340 nM	EC50 (PRCIWM-1 cells): 663 nM

SMILES	EC50 (MWCL-1 cells)	IC50 (BMX [1])	IC50 (BTK)	EC50 (BCWM.1 cells)	EC50 (Ramos cells)	IC50 (mTOR)	EC50 (OCI-Ly19 cells)	EC50 (OCI-Ly3 cells)	also measured
C=CC(=O)Nc1cc(-n2c(=O)ccc3cnc4ccc(Nc5ccc6cnccc6c5)cc4c32)ccc1C [I-27]	9150 nM	–	–	1350 nM	6280 nM	–	374 nM	2590 nM	EC50 (PRCIWM-1 cells): 345 nM
C=CC(=O)Nc1cc(-n2c(=O)ccc3cnc4ccc(Nc5ccc6cccnc6c5)cc4c32)ccc1C [I-28]	7490 nM	–	–	4440 nM	3430 nM	–	1050 nM	3590 nM	EC50 (PRCIWM-1 cells): 691 nM
C=CC(=O)Nc1cc(-n2c(=O)ccc3cnc4ccc(Nc5ccc6ncccc6c5)cc4c32)ccc1C [I-29]	7290 nM	–	–	2200 nM	2570 nM	–	390 nM	3080 nM	EC50 (PRCIWM-1 cells): 528 nM
C=CC(=O)Nc1cc(-n2c(=O)ccc3cnc4ccc(-c5cnn(C)c5)cc4c32)ccc1C [II-3]	–	8.16 nM and 8 nM	14 nM	–	–	173 nM	–	–	–
C=CC(=O)Nc1cc(-n2c(=O)ccc3cnc4ccc(-c5ccc(N)nc5)cc4c32)ccc1C [II-5]	1550 nM	12.9 nM and 13 nM	16 nM	643 nM	872 nM	17 nM	454 nM	408 nM	EC50 (PRCIWM-1 cells): 86 nM
C=CC(=O)Nc1cccc(-n2c(=O)ccc3cnc4ccc(-c5ccc(N)nc5)cc4c32)c1 [II-7]	–	15.7 nM and 16 nM	19 nM	–	–	19 nM	–	–	–
C=CC(=O)Nc1cccc(-n2c(=O)ccc3cnc4ccc(-c5cn[nH]c5)cc4c32)c1 [II-8]	–	10.5 nM and 11 nM	18 nM	–	–	41 nM	–	–	–
C=CC(=O)Nc1cc(-n2c(=O)ccc3cnc4ccc(-c5ccsc5)cc4c32)ccc1C [II-9]	–	19.7 nM and 20 nM	39 nM	–	–	369 nM	–	–	–
C=CC(=O)Nc1cc(-n2c(=O)ccc3cnc4ccc(-c5ccoc5)cc4c32)ccc1C [II-10]	2160 nM	12.1 nM and 12 nM	17 nM	410 nM	280 nM	4790 nM	70 nM	480 nM	IC50 (JAK3): 492 nM
C=CC(=O)Nc1cc(-n2c(=O)ccc3cnc4ccc(-c5cccnc5)cc4c32)ccc1C [II-11]	670 nM	66.1 nM and 66 nM	115 nM	190 nM	200 nM	1 nM	90 nM	240 nM	IC50 (JAK3): 1520 nM; IC50 (BLK): 1950 nM
C=CC(=O)N1CCc2ccc(-n3c(=O)ccc4cnc5ccc(-c6cnc7ccccc7c6)cc5c43)cc21 [II-12]	–	5.62 nM and 6 nM	7 nM	–	–	59 nM	–	–	–
C=CC(=O)N1CCc2ccc(-n3c(=O)ccc4cnc5ccc(-c6ccc(N)nc6)cc5c43)cc21 [II-13]	2470 nM	13.3 nM and 13 nM	6 nM	770 nM	1350 nM	98 nM	100 nM	1670 nM	IC50 (JAK3): 5640 nM; IC50 (TEC): 27 nM; IC50 (BLK): 300 nM
C=CC(=O)N1CCc2ccc(-n3c(=O)ccc4cnc5ccc(-c6cn[nH]c6)cc5c43)cc21 [II-14]	650 nM	8.75 nM and 9 nM	12 nM	320 nM	360 nM	209 nM	160 nM	500 nM	IC50 (JAK3): 2150 nM; IC50 (TEC): 57 nM; IC50 (BLK): 247 nM
C=CC(=O)N1CCc2ccc(-n3c(=O)ccc4cnc5ccc(-c6cnc(N)cc6C(F)(F)F)cc5c43)cc21 [II-15]	–	–	337 nM	–	–	–	–	–	–
C=CC(=O)Nc1cc(-n2c(=O)ccc3cnc4ccc(-c5cnc6ccccc6c5)cc4c32)ccc1C [II-16]	–	18.5 nM and 19 nM	25 nM	–	–	32 nM	–	–	–
C=CC(=O)Nc1cc(-n2c(=O)ccc3cnc4ccc(-c5cnn(S(=O)(=O)c6ccccc6)c5)cc4c32)ccc1C [II-23]	1550 nM	–	–	643 nM	872 nM	–	454 nM	408 nM	EC50 (PRCIWM-1 cells): 86 nM
